In patent US20220274954A1, “SUBSTITUTED N-PHENYL-N-AMINOUARCILS AND SALTS THEREOF AND USE THEREOF AS HERBICIDAL AGENTS” (Bayer Aktiengesellschaft, priority 2019, published 2022):
Each block holds one compound with its values, some of them ahead of it.

Assays:
Format in all cases: in vivo
Veronica persica [1] = assay: Post-emergence herbicidal action; settings: Veronica persica, 504 h, read-out: Veronica persica (efficacy in %); for pest or weed control at 5 g/ha: application rate 5 g/ha
Summary of the method: (§1)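 Plants grown from seed in sandy loam in the greenhouse were sprayed at the one-leaf stage, 2 to 3 weeks after sowing, with WP or EC formulations in water plus 0.5% additive at 20 g/ha or less. Activity was rated visually after about 3 weeks against untreated controls (100% = plants died, 0% = like control).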

Abutilon theophrasti [2] = assay: Post-emergence herbicidal action; settings: Abutilon theophrasti, 504 h, read-out: Abutilon theophrasti (efficacy in %); for pest or weed control at 5 g/ha: application rate 5 g/ha
Summary of the method: as §1

Matricaria inodora [3] = assay: Post-emergence herbicidal action; settings: Tripleurospermum inodorum, 504 h, read-out: Matricaria inodora (efficacy in %); for pest or weed control at 5 g/ha: application rate 5 g/ha
Summary of the method: as §1

Pharbitis purpurea [4] = assay: Post-emergence herbicidal action; settings: Ipomoea purpurea, 504 h, application rate 5 g/ha, read-out: Pharbitis purpurea (efficacy in %)
Summary of the method: as §1

Polygonum convolvulus [5] = assay: Post-emergence herbicidal action; settings: Fallopia convolvulus, 504 h, read-out: Polygonum convolvulus (efficacy in %)
Summary of the method: as §1

Setaria viridis [6] = assay: Post-emergence herbicidal action; settings: 504 h, read-out: Setaria viridis (efficacy in %); for pest or weed control at 5 g/ha: application rate 5 g/ha
Summary of the method: as §1

Brassica napus [7] = assay: Post-emergence crop plant compatibility
Summary of the method: (§2)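 Values are visual % effects about 3 weeks after treatment, relative to untreated plants (0% = like control, 100% = plant death). Crops sown in sandy loam under greenhouse conditions were treated post-emergence at the one-leaf stage (2–3 weeks). Compounds were applied as WP or EC sprays with 0.5% additive at […] water.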

Triticum aestivum [8] = assay: Post-emergence crop plant compatibility
Summary of the method: as §2

Oryza sativa = assay: Post-emergence crop plant compatibility
Summary of the method: as §2

Brassica napus [9] = assay: Pre-emergence crop plant compatibility; settings: application rate 20 g/ha
Source text: (§3) Seeds of monocotyledonous and dicotyledonous weed plants and crop plants were placed in plastic or organic planting pots and covered with soil. The compounds of the invention, formulated in the form of wettable powders (WP) or as emulsion concentrates (EC), were then applied to the surface of the covering soil as aqueous suspension or emulsion with addition of 0.5% additive at a water application rate equivalent to […] (converted). After the treatment, the pots were placed in a greenhouse and kept under good growth conditions for the test plants. After about 3 weeks, the effect of the preparations was scored visually in comparison with untreated controls as percentages. For example, 100% activity=the plants have died, 0% activity=like control plants.
(§4) Here, the observed effects on selected crop plants are stated in comparison to the untreated controls (values in %).

Triticum aestivum [10] = assay: Pre-emergence crop plant compatibility; settings: application rate 20 g/ha
Source text: as §3, §4

Zea mays [11] = assay: Pre-emergence crop plant compatibility
Source text: as §3, §4

Glycine max [12] = assay: Pre-emergence crop plant compatibility; settings: application rate 80 g/ha
Source text: as §3, §4

Echinochloa crus-galli [13] = assay: Pre-emergence herbicidal action; settings: application rate 80 g/ha, scored after about 3 weeks
Source text: as §3
(§5) Tables B1 to B11 below show the effects of selected compounds of the general formula (I) according to Tables I.1 to I.34 on various harmful plants and at an application rate corresponding to 80 g/ha and less, which were obtained by the experimental procedure mentioned above.

Veronica persica [14] = assay: Pre-emergence herbicidal action; settings: scored after about 3 weeks
Source text: as §3, §5

Abutilon theophrasti [15] = assay: Pre-emergence herbicidal action; settings: application rate 80 g/ha, scored after about 3 weeks
Source text: as §3, §5

Matricaria inodora [16] = assay: Pre-emergence herbicidal action; settings: scored after about 3 weeks
Source text: as §3, §5

Pharbitis purpurea [17] = assay: Pre-emergence herbicidal action; settings: application rate 80 g/ha, scored after about 3 weeks
Source text: as §3, §5

Polygonum convolvulus [18] = assay: Pre-emergence herbicidal action; settings: scored after about 3 weeks
Source text: as §3, §5

Viola tricolor [19] = assay: Pre-emergence herbicidal action; settings: scored after about 3 weeks
Source text: as §3, §5

Setaria viridis [20] = assay: Pre-emergence herbicidal action; settings: scored after about 3 weeks
Source text: as §3, §5

Digitaria sanguinalis [21] = assay: Pre-emergence herbicidal action; settings: scored after about 3 weeks
Source text: as §3, §5

Alopecurus myosuroides = assay: Pre-emergence herbicidal action; settings: application rate 80 g/ha
Source text: as §3, §5

Amaranthus retroflexus [22] = assay: Pre-emergence herbicidal action; settings: scored after about 3 weeks
Source text: as §3, §5

Echinochloa crus-galli [23] = assay: Post-emergence herbicidal action; settings: Echinochloa crus-galli, 504 h, read-out: Echinochloa crus-galli (efficacy in %)
Summary of the method: as §1

Stellaria media = assay: Post-emergence herbicidal action; settings: application rate 20 g/ha
Summary of the method: as §1

Viola tricolor [24] = assay: Post-emergence herbicidal action; settings: Viola tricolor, 504 h, read-out: Viola tricolor (efficacy in %)
Summary of the method: as §1

Digitaria sanguinalis [25] = assay: Post-emergence herbicidal action; settings: 504 h, application rate 20 g/ha, read-out: Digitaria sanguinalis (efficacy in %)
Summary of the method: as §1

Amaranthus retroflexus [26] = assay: Post-emergence herbicidal action; settings: Amaranthus retroflexus, 504 h, read-out: Amaranthus retroflexus (efficacy in %)
Summary of the method: as §1

Zea mays [27] = assay: Post-emergence crop plant compatibility; settings: application rate 1.25 g/ha
Summary of the method: as §2

Glycine max [28] = assay: Post-emergence crop plant compatibility
Summary of the method: as §2

Lolium rigidum = assay: Pre-emergence herbicidal action; settings: application rate 80 g/ha, scored after about 3 weeks
Source text: as §3, §5

Brassica napus (efficacy in %) (Brassica napus [7]): 0%
Brassica napus (efficacy in %) (Brassica napus [7]; application rate 5 g/ha): 20%
Triticum aestivum (efficacy in %) (Triticum aestivum [8]; application rate 1.25 g/ha): 10%
Triticum aestivum (efficacy in %) (Triticum aestivum [8]; application rate 5 g/ha): 20%
Oryza sativa (efficacy in %) (Oryza sativa; application rate 5 g/ha): 20%
Brassica napus (efficacy in %) (Brassica napus [9]): 0%
Triticum aestivum (efficacy in %) (Triticum aestivum [10]): 20%
Zea mays (efficacy in %) (Zea mays [11]; application rate 20 g/ha): 0%
Zea mays (efficacy in %) (Zea mays [11]; application rate 80 g/ha): 20%
Glycine max (efficacy in %) (Glycine max [12]): 0%
Structure (SMILES): CCOC(=O)CCOc1ncccc1Sc1cc(-n2c(=O)cc(C(F)(F)F)n(N)c2=O)c(F)cc1Cl [I.5-442, Ethyl 3-{[3-({5-[3-amino-2,6-dioxo-4-(trifluoromethyl)-3,6-dihydropyrimidin-1(2H)-yl]-2-chloro-4-fluorophenyl}sulfanyl)pyridin-2-yl]oxy}propanoate]
pest or weed control at 5 g/ha (Veronica persica [1]): 100%
pest or weed control at 5 g/ha (Abutilon theophrasti [2]): 100%
pest or weed control at 5 g/ha (Matricaria inodora [3]): 80%
pest or weed control at 5 g/ha (Pharbitis purpurea [4]): 100%
pest or weed control at 5 g/ha (Polygonum convolvulus [5]; application rate 5 g/ha): 100%
pest or weed control at 5 g/ha (Setaria viridis [6]): 90%
Echinochloa crus-galli (efficacy in %) (Echinochloa crus-galli [13]): 80%
Veronica persica (efficacy in %) (Veronica persica [14]; application rate 20 g/ha): 90%
Veronica persica (efficacy in %) (Veronica persica [14]; application rate 80 g/ha): 100%
Abutilon theophrasti (efficacy in %) (Abutilon theophrasti [15]): 100%
Matricaria inodora (efficacy in %) (Matricaria inodora [16]; application rate 80 g/ha): 90%
Pharbitis purpurea (efficacy in %) (Pharbitis purpurea [17]): 100%
Polygonum convolvulus (efficacy in %) (Polygonum convolvulus [18]; application rate 20 g/ha): 100%
Polygonum convolvulus (efficacy in %) (Polygonum convolvulus [18]; application rate 80 g/ha): 100%
Viola tricolor (efficacy in %) (Viola tricolor [19]; application rate 20 g/ha): 100%
Setaria viridis (efficacy in %) (Setaria viridis [20]; application rate 80 g/ha): 100%
Digitaria sanguinalis (efficacy in %) (Digitaria sanguinalis [21]; application rate 80 g/ha): 80%
Alopecurus myosuroides (efficacy in %) (Alopecurus myosuroides): 80%
Amaranthus retroflexus (efficacy in %) (Amaranthus retroflexus [22]; application rate 20 g/ha): 100%
Amaranthus retroflexus (efficacy in %) (Amaranthus retroflexus [22]; application rate 80 g/ha): 100%

Brassica napus (efficacy in %) (Brassica napus [7]; application rate 1.25 g/ha): 10%
Zea mays (efficacy in %) (Zea mays [27]): 20%
Oryza sativa (efficacy in %) (Oryza sativa; application rate 1.25 g/ha): 10%
Oryza sativa (efficacy in %) (Oryza sativa; application rate 5 g/ha): 20%
Glycine max (efficacy in %) (Glycine max [28]; application rate 1.25 g/ha): 10%
Glycine max (efficacy in %) (Glycine max [28]; application rate 5 g/ha): 20%
Brassica napus (efficacy in %) (Brassica napus [9]): 0%
Triticum aestivum (efficacy in %) (Triticum aestivum [10]): 10%
Zea mays (efficacy in %) (Zea mays [11]; application rate 20 g/ha): 0%
Structure (SMILES): CCOC(=O)COc1ncccc1Sc1cc(-n2c(=O)cc(C(F)(F)F)n(N)c2=O)c(F)cc1Cl [I.1-442, Ethyl {[3-({5-[3-amino-2,6-dioxo-4-(trifluoromethyl)-3,6-dihydropyrimidin-1(2H)-yl]-2-chloro-4-fluorophenyl}sulfanyl)pyridin-2-yl]oxy}acetate]
pest or weed control at 5 g/ha (Echinochloa crus-galli [23]; application rate 5 g/ha): 100%
pest or weed control at 20 g/ha (Echinochloa crus-galli [23]; application rate 20 g/ha): 100%
pest or weed control at 5 g/ha (Veronica persica [1]): 100%
pest or weed control at 20 g/ha (Veronica persica [1]; application rate 20 g/ha): 100%
pest or weed control at 5 g/ha (Abutilon theophrasti [2]): 100%
pest or weed control at 20 g/ha (Abutilon theophrasti [2]; application rate 20 g/ha): 100%
pest or weed control at 5 g/ha (Matricaria inodora [3]): 90%
pest or weed control at 20 g/ha (Matricaria inodora [3]; application rate 20 g/ha): 100%
Stellaria media (efficacy in %) (Stellaria media): 100%
pest or weed control at 5 g/ha (Pharbitis purpurea [4]): 100%
pest or weed control at 20 g/ha (Polygonum convolvulus [5]; application rate 20 g/ha): 100%
pest or weed control at 5 g/ha (Viola tricolor [24]; application rate 5 g/ha): 100%
pest or weed control at 20 g/ha (Viola tricolor [24]; application rate 20 g/ha): 100%
pest or weed control at 5 g/ha (Setaria viridis [6]): 100%
pest or weed control at 20 g/ha (Setaria viridis [6]; application rate 20 g/ha): 100%
pest or weed control at 20 g/ha (Digitaria sanguinalis [25]): 100%
pest or weed control at 5 g/ha (Amaranthus retroflexus [26]; application rate 5 g/ha): 100%
pest or weed control at 20 g/ha (Amaranthus retroflexus [26]; application rate 20 g/ha): 100%
Lolium rigidum (efficacy in %) (Lolium rigidum): 100%
Echinochloa crus-galli (efficacy in %) (Echinochloa crus-galli [13]): 100%
Veronica persica (efficacy in %) (Veronica persica [14]; application rate 20 g/ha): 80%
Veronica persica (efficacy in %) (Veronica persica [14]; application rate 80 g/ha): 100%
Abutilon theophrasti (efficacy in %) (Abutilon theophrasti [15]): 100%
Matricaria inodora (efficacy in %) (Matricaria inodora [16]; application rate 20 g/ha): 100%
Matricaria inodora (efficacy in %) (Matricaria inodora [16]; application rate 80 g/ha): 100%
Pharbitis purpurea (efficacy in %) (Pharbitis purpurea [17]): 100%
Polygonum convolvulus (efficacy in %) (Polygonum convolvulus [18]; application rate 20 g/ha): 90%
Polygonum convolvulus (efficacy in %) (Polygonum convolvulus [18]; application rate 80 g/ha): 100%
Viola tricolor (efficacy in %) (Viola tricolor [19]; application rate 20 g/ha): 100%
Viola tricolor (efficacy in %) (Viola tricolor [19]; application rate 80 g/ha): 100%
Setaria viridis (efficacy in %) (Setaria viridis [20]; application rate 20 g/ha): 90%
Setaria viridis (efficacy in %) (Setaria viridis [20]; application rate 80 g/ha): 100%
Digitaria sanguinalis (efficacy in %) (Digitaria sanguinalis [21]; application rate 20 g/ha): 100%
Digitaria sanguinalis (efficacy in %) (Digitaria sanguinalis [21]; application rate 80 g/ha): 100%
Alopecurus myosuroides (efficacy in %) (Alopecurus myosuroides): 90%
Amaranthus retroflexus (efficacy in %) (Amaranthus retroflexus [22]; application rate 20 g/ha): 100%
Amaranthus retroflexus (efficacy in %) (Amaranthus retroflexus [22]; application rate 80 g/ha): 100%
